According to patent US12440451B2, “Compositions and methods using an epigenetic inhibitor” (DANA-FARBER CANCER INSTITUTE, INC., priority 2017, dated 2025):

How the values were obtained:
Format in all cases: cell-based, mouse
[1] = tested on: H3K9-Ac and H3K27-Ac in CD8+ T cells; assay: ChIP-qPCR for H3K9ac and H3K27ac at promoter regions of 32 effector function genes; conditions: 3 μM, 5 days
Description: Chromatin was extracted from sorted CD8^+ T cells activated with or without RGFP966 for 5 days as described in FIG. 1 and Example 1 above, and chromatin immunoprecipitation (ChIP) was performed for H3K9ac and H3K27 markers.
Immunoprecipitated chromatin was analyzed using quantitative real-time PCR (qPCR) with primer probes for the promoter regions of a custom set of 32 genes known to be associated with various aspects of CD8^+ T cell effector function (effector cytokines, cytotoxicity, regulatory transcription factors, as well as positive and negative controls for data quality control). […] Histogram bars are presented in pairs for each marker, with the left hand bar of each pair (gray) representing data from untreated CD8^+ T cells and the right hand bar of each pair (black) representing data from CD8^+ T cells treated with 3 μM RGF966.

[2] = tested on: OT-I+ CD8+ T cells; assay: immunoblot time course of sorted CD8+ T cells after activation; conditions: 3 μM
Description: Analysis was first made on expression of HDAC3 and its known binding partners, global histone acetylation levels, and known regulatory transcription factors of CD8^+ T cell effector function across a time course of T cell activation in the absence or presence of the HDAC3 inhibitor RGFP966.
To do so, OT-I^+ CD8^+ T cells were activated in vitro for 7 days, as described in FIG. 1 and Example 1 above. Activated cells received either 0 μM or 3 μM of HDAC3 inhibitor RGF966. Sorted CD8^+ T cells from the in vitro co-cultures were then assessed for HDAC3 and various markers by immunoblot at 2, 22, 72, 120, and 168 hours after activation (see immunoblot of FIG. 9A). The markers assessed included: NCOR1 and NCOR2 (part of the HDAC3/NCOR complex): BCL-6, T-BET, and BLIMP-1 (markers of the BCL-6-5-bet pathway): GAPDH and LAMIN BI (protein loading controls): acetylated residues H3K9 and H3K27, and histone H3 (markers of histone H3 acetylation).

[3] = tested on: OT-I+ CD8+ T cells; assay: in vitro CD8+ T cell activation assay with SIINFEKL-pulsed BMDCs, flow cytometry for effector markers
Description: To screen for compounds that may inhibit epigenetic enzymes, an in vitro model of T cell activation by antigen-loaded antigen presenting cells (APCs) was used. CD8^+ T cells were harvested from OT-I T cell receptor transgenic mice. OT-I mice are transgenic for the mouse Tera-V2 and Torb-V5 genes, which form a T cell receptor that recognizes the SIINFEKL peptide (SEQ ID NO: 1) epitope of chicken ovalbumin presented in the context of the Kb MHC I molecule. This allows testing of T cell activation in response to addition of SIINFEKL peptide (SEQ ID NO: 1). The APCs used for T cell activation were bone marrow-derived dendritic cells (BMDCs) harvested from congenic H-2b-MHC haplotype C57BL/6 (B6) mice.
To set up the screen, BMDCs were harvested, irradiated, and seeded into 96-well tissue culture plates (5×10^4/well) in the presence of 200 nM SIINFEKL peptide (SEQ ID NO: 1) for antigen loading. OT-I^+ CD8^+ T cells were freshly isolated from peripheral lymphoid organs of OT-I mice and added to the BMDCs in 96-well plates (5×10^4/well). One hundred epigenetic inhibitor drugs from a custom library provided by Dr. David Fisher (Massachusetts General Hospital, Boston, MA) were added separately to individual wells for a final concentration of 10 μM or 1 μM. Negative (non-drug treated) wells were given an equivalent volume of DMSO vehicle.
The OT-I^+ CD8^+ T cells were cultured for 10 days at 37° C., with media changes at days 3, 5, and 7. After 10 days, T cells were collected from the 96-well plates and analyzed by flow cytometry for markers of cell viability, effector differentiation, cytokine secretion, and cytotoxicity.
For each marker assessed, a change of greater than two standard deviations from the mean of the negative control wells was deemed a significant change.
To validate the phenotypic changes observed with RGFP966 treatment during the screen, the in vitro activation assay was repeated to compare T cells treated with RGFP966 with vehicle-treated control cells. OT-I^+ CD8^+ T cells were activated with SIINFEKL-pulsed BMDCs as in Example 1 for 7 days, with media changes at days 3 and 5. T cells were then collected and analyzed by flow cytometry for markers of effector differentiation (CD25, PD-1), cytokine secretion (IFN-γ, TNF-α, IL-2), and cytotoxicity (granzyme B).
An additional study was done on the effects of RGFP966 on T cell expression of phenotypic markers of CD8^+ effector differentiation. T cells were treated with RGFP966 and vehicle using the in vitro activation assay and flow cytometry techniques described above. OT-I^+ CD8^+ T cells were activated with SIINFEKL-pulsed BMDCs (see above) for 7 days, with media changes at days 3 and 5. T cells were collected and analyzed by flow cytometry for markers of effector differentiation (CD25, PD-1), cytokine secretion (IFN-γ, TNF-α, IL-2), and cytotoxicity (granzyme B).
OT-I^+ CD8^+ T cells were activated with antigen-pulsed BMDCs as described above, and dosed with RGFP966 for different durations of time as depicted in the schematic diagram of FIG. 7A: dose duration A of RGFP966 exposure was from day 0 to day 7 of co-culture: dose duration B of RGFP966 exposure was from day 3 to day 7 of co-culture: dose duration C of RGFP966 exposure was from day 5 to day 7 of co-culture: dose duration D of RGFP966 exposure was from day 0 to day 3 of co-culture: dose duration E of RGFP966 exposure was from day 0 to day 5 of co-culture. These time windows (dose durations A-E) correspond roughly to the early (day 0 to 3), mid-(day 3 to 5), and late (day 5 to 7) phases of T cell activation described in the literature.
T cells were thoroughly washed with culture media during media changes at a transition point (i.e. drug to no drug or vice versa). T cells in samples D and E (light gray arrows) were re-suspended in conditioned media from parallel cultures of DMSO vehicle-treated T cells in order to maintain similar levels of T cell activating cytokines in the media. […]

[4] = 10 μM, 7 days activation, relative to DMSO-treated cells

SMILES: Nc1cc(F)ccc1NC(=O)/C=C/c1cnn(C/C=C/c2ccccc2)c1 [RGFP966]
- histone acetylation at GZMB, FASL, TBX21, PRDM1 and ID2 [1]: most significant changes in histone acetylation
- H3K9 and H3K27 acetylation at promoters of IFN-γ, TNF-α and IL-2 ([1]; not always significant): generally had increased H3K9 and H3K27 acetylation
- levels of BCL-6 [2]: no significant changes
- levels of BLIMP-1 (PRDM1) [2]: no significant changes
- global histone acetylation at H3K9 ([2]; after 72 hours post-activation): persistently high after 72 hours
- HDAC3 protein level ([2]; immunoblot 2-168 hours): does not result in loss of HDAC3 protein
- expression of T-BET (TBX21) ([2]; relative to control-treated cells): increased in the drug-treated cells relative to control-treated cells
- NCOR2 level ([2]; starting at 120 hours post-activation): almost completely absent
- TNF-α expression measured in pg/mL ([3]; 10 μM compared with 1 μM or vehicle, FIG. 2J): increased expression of the activation marker TNF-α
- CD25 expression [3, 4]: higher levels
- IFN-γ expression [3, 4]: higher levels
- IL-2 expression [3, 4]: higher levels
- PD-1 expression [3, 4]: higher levels
- TNF-α expression [3, 4]: higher levels
- granzyme B expression [3, 4]: more of the cytotoxic effector protein granzyme B
- expression of CD25 and TNF-α when the drug is washed out midway ([3]; 10 μM, exposure day 0 to 3 or day 0 to 5, relative to all 7 days): did not reduce the expression of CD25 and TNF-α
- expression of markers of T cell activation (CD25, TNF-α) when dosing starts at later time points ([3]; 10 μM, exposure from day 3 or day 5 to day 7): reduce the expression of markers of T cell activation
- expression of CD44 and CD62L ([3]; 10 μM, flow cytometry, FIG. 2A, vs vehicle): high expression of CD62L and intermediate to high expression of CD44
- CD107a positive cells ([3]; 10 μM, flow cytometry, FIG. 2B, vs vehicle): many more CD107a positive cells than the vehicle controls
- TNF-α positive cells ([3]; 10 μM, flow cytometry, FIG. 2C, vs untreated): larger number of TNF-α positive cells than the untreated T cells
- effector phenotype of CD8+ T cells in the secondary screen ([3]; 10 μM, screen of HDAC inhibitors): consistently augmented the effector phenotype
- dose sufficient to augment the effector phenotype of CD8+ T cells ([3]; in vitro activation, titration 0, 1, 3, 5 μM): 3 µM
- dose at which the dose-dependent augmentation of the T cell effector phenotype begins ([3]; titration 0, 1, 3, 5 μM, 7 days): greater than 1 μM
- percentage of actively proliferating cells measured by Ki-67 expression ([3]; with increasing drug dose, titration 0, 1, 3, 5 μM): reduction in the percentage of actively proliferating cells
